From the NIST ThermoML archive (doi:10.1016/j.jct.2012.03.025)

Test: mn = molality of the nth substance listed, in mol/kg
Settings: 101 kPa, Liquid; for speed of sound: Sing-around technique in a fixed-path interferometer; for mass density: Vibrating tube method

CC(=O)[O-].CCCCn1cc[n+](C)c1 [1-butyl-3-methylimidazolium acetate] + O
Settings	mass density, 288.15 K [kg/m3]	mass density, 293.15 K [kg/m3]	mass density, 298.15 K [kg/m3]	mass density, 303.15 K [kg/m3]	mass density, 308.15 K [kg/m3]	speed of sound, 288.15 K [m/s]	speed of sound, 293.15 K [m/s]	speed of sound, 298.15 K [m/s]	speed of sound, 303.15 K [m/s]	speed of sound, 308.15 K [m/s]
m1 = 0.0534	999.93	999	997.824	996.406	994.772	1476.3	1492	1505.6	1517.5	1527.3
m1 = 0.104	1000.71	999.755	998.548	997.105	995.451	1485.4	1500.6	1513.6	1525.2	1534.3
m1 = 0.1535	1001.45	1000.47	999.237	997.775	996.101	1494.2	1508.8	1521.3	1532.3	1541
m1 = 0.209	1002.31	1001.29	1000.03	998.535	996.836	1504	1517.9	1529.8	1540	1548.3
m1 = 0.2498	1002.95	1001.91	1000.62	999.11	997.391	1511	1524.4	1535.9	1545.7	1553.8
m1 = 0.2997	1003.66	1002.59	1001.27	999.737	997.998	1519.5	1532	1543	1552.5	1560.3
m1 = 0.35	1004.51	1003.4	1002.05	1000.49	998.725	1528.1	1540	1550	1559	1566.8
m1 = 0.4035	1005.33	1004.19	1002.81	1001.22	999.427	1536.9	1548	1557.6	1566	1573.3
m1 = 0.457	1006.2	1005.02	1003.61	1001.98	1000.17	1545.8	1556	1564.8	1572.9	1579.9
m1 = 0.5036	1006.93	1005.72	1004.28	1002.63	1000.79	1553.4	1562.8	1571	1578.5	1585.6

CCCCn1cc[n+](C)c1.[Br-] [1-butyl-3-methylimidazolium bromide] + O
Settings	mass density, 288.15 K [kg/m3]	mass density, 293.15 K [kg/m3]	mass density, 298.15 K [kg/m3]	mass density, 303.15 K [kg/m3]	mass density, 308.15 K [kg/m3]	speed of sound, 288.15 K [m/s]	speed of sound, 293.15 K [m/s]	speed of sound, 298.15 K [m/s]	speed of sound, 303.15 K [m/s]	speed of sound, 308.15 K [m/s]
m1 = 0.0513	1001.7	1000.78	999.601	998.177	996.522	1472.8	1488.1	1501.8	1513.7	1524
m1 = 0.1034	1004.29	1003.33	1002.13	1000.67	998.994	1478.8	1493.6	1506.8	1518.3	1528.2
m1 = 0.1531	1006.73	1005.72	1004.51	1003.02	1001.34	1484.5	1498.7	1511.5	1522.5	1532
m1 = 0.2012	1009.09	1008.05	1006.79	1005.29	1003.58	1489.6	1503.7	1516	1526.6	1535.7
m1 = 0.2499	1011.45	1010.37	1009.06	1007.54	1005.82	1494.9	1508.5	1520.4	1530.7	1539.3
m1 = 0.2995	1013.81	1012.7	1011.38	1009.81	1008.07	1500.4	1513.5	1524.9	1534.6	1543
m1 = 0.35	1016.21	1015.02	1013.64	1012.1	1010.34	1505.5	1518.3	1529.3	1538.7	1546.7
m1 = 0.4008	1018.58	1017.37	1015.96	1014.35	1012.6	1510.9	1523	1533.6	1542.6	1550.2
m1 = 0.4565	1021.19	1019.89	1018.45	1016.8	1015.05	1516.4	1528.1	1538.2	1546.8	1554
m1 = 0.5012	1023.28	1021.91	1020.5	1018.75	1017.01	1520.9	1532.2	1542	1550.2	1557.1

CCCCn1cc[n+](C)c1.[Cl-] [1-butyl-3-methylimidazolium chloride] + O
Settings	mass density, 288.15 K [kg/m3]	mass density, 293.15 K [kg/m3]	mass density, 298.15 K [kg/m3]	mass density, 303.15 K [kg/m3]	mass density, 308.15 K [kg/m3]	speed of sound, 288.15 K [m/s]	speed of sound, 293.15 K [m/s]	speed of sound, 298.15 K [m/s]	speed of sound, 303.15 K [m/s]	speed of sound, 308.15 K [m/s]
m1 = 0.0519	999.802	998.874	997.684	996.264	994.611	1474.6	1489.9	1503.6	1515.5	1525.8
m1 = 0.1011	1000.45	999.477	998.265	996.836	995.146	1482	1496.7	1509.9	1521.4	1531.3
m1 = 0.1548	1001.14	1000.16	998.918	997.452	995.754	1489.8	1504	1516.6	1527.7	1537.2
m1 = 0.2011	1001.77	1000.76	999.494	998.007	996.292	1496.5	1510.1	1522.3	1533	1542.3
m1 = 0.2583	1002.56	1001.52	1000.2	998.699	996.957	1504.3	1517.8	1529.2	1539.7	1548.4
m1 = 0.311	1003.25	1002.18	1000.86	999.317	997.577	1511.4	1524.5	1535.6	1545.6	1553.9
m1 = 0.3619	1003.98	1002.88	1001.53	999.989	998.169	1518.1	1531	1541.4	1551.3	1559.3
m1 = 0.4064	1004.59	1003.46	1002.09	1000.54	998.737	1524	1536.4	1546.8	1556.2	1563.9
m1 = 0.451	1005.23	1004.07	1002.67	1001.08	999.294	1530	1542.1	1551.6	1561	1568.4
m1 = 0.5069	1005.99	1004.8	1003.4	1001.79	999.991	1536.9	1549	1557.9	1567.1	1574

CCCCn1cc[n+](C)c1.[I-] [1-butyl-3-methylimidazolium iodide] + O
Settings	mass density, 288.15 K [kg/m3]	mass density, 293.15 K [kg/m3]	mass density, 298.15 K [kg/m3]	mass density, 303.15 K [kg/m3]	mass density, 308.15 K [kg/m3]	speed of sound, 288.15 K [m/s]	speed of sound, 293.15 K [m/s]	speed of sound, 298.15 K [m/s]	speed of sound, 303.15 K [m/s]	speed of sound, 308.15 K [m/s]
m1 = 0.0514	1003.51	1002.58	1001.37	999.906	998.257	1471.2	1486.3	1500	1511.9	1522.2
m1 = 0.1017	1007.71	1006.74	1005.46	1003.96	1002.28	1475.6	1489.8	1503	1514.5	1524.4
m1 = 0.1497	1011.65	1010.64	1009.32	1007.76	1006.08	1479.5	1493.2	1505.8	1516.8	1526.2
m1 = 0.1995	1015.69	1014.61	1013.26	1011.7	1009.95	1483.3	1496.4	1508.5	1519.1	1528.1
m1 = 0.2522	1019.87	1018.75	1017.37	1015.77	1013.98	1487.2	1499.6	1511.4	1521.6	1530.1
m1 = 0.3025	1023.82	1022.63	1021.27	1019.6	1017.78	1491	1502.7	1514	1523.7	1531.9
m1 = 0.3477	1027.3	1026.08	1024.71	1023	1021.14	1494.2	1505.2	1516.1	1525.5	1533
m1 = 0.4036	1031.57	1030.23	1028.85	1027.14	1025.23	1498	1508.5	1519	1527.7	1534.9
m1 = 0.4508	1035.08	1033.71	1032.38	1030.58	1028.63	1501.1	1511.1	1521.1	1529.7	1536.2
m1 = 0.5032	1038.95	1037.5	1036.15	1034.41	1032.4	1504.9	1514.1	1523.7	1531.8	1537.6
